# Test results taken from US6908942B2, “6-amino-2,2-dimethyl-3,4,6-trisubstituted benzopyran derivatives and their construction by parallel synthesis on solid-phase” (Korea Research Institute of Chemical Technology, priority 2002, dated 2005).
# System: lipid peroxidation induced by iron
# Experiment: Inhibitory effect on iron-induced lipid peroxidation in rat brain homogenate (MDA measurement, N-methyl-2-phenylindole, Bioxytech LPO-586 Kit)
# Format: biochemical
# Settings: FeCl2 400 μM, 30 min at 37° C., decrease of MDA vs DMSO control, absorption at 586 nm
# Method: The inhibitory effect of the present compounds on lipid peroxidation induced by iron was evaluated as follows:
# Rat brain was homogenized in Krebs buffer (15 mM HEPES, 10 mM glucose, 140 mM NaCl, 3.6 mM KCl, 1.5 mM CaCl2, 1.4 mM KH2PO4 and 0.7 mM MgCl, pH 7.4) and centrifuged at 12,000 rpm to obtain the supernatant serving as a raw material of lipid. To the brain homogenates, FeCl^2 was added to give a final concentration of 400 μM and allowed to stand for 30 min at 37° C. for promoting oxidation. Each of the compounds to be tested was added to give a concentration of 12.5 μM and a control group was solely added with dimethylsulfoxide (DMSO).
# When iron is added to brain homogenates, oxidation is promoted to increase the amount of malondialdehyde (MDA) as lipid peroxidation product. Therefore, in this Example, the level of lipid peroxidation was evaluated according to MDA measurement method. In general MDA measurement, the test sample is reacted with TBA (2-thiobarbituric acid) and the absorbance at 530 nm was measured. However, since such process includes a boiling step, it is unsuitable for dealing with test samples in large quantity. Therefore, in this Example, N-methyl-2-phenylindole was used as a color developing reagent in place of TBA so as to avoid boiling step. […] The inhibitory effect on lipid peroxidation of test compounds was evaluated by calculating the decreased level of MDA in percentage based on the amount of MDA in the control group. For the test compounds showing more than 80% inhibitory effect, the concentration-lipid peroxidation inhibition curves were plotted with reference to the decrease rate of MDA amount based on the amount of MDA in the control group and their IC50 values was calculated through least linear regression analysis.
# In addition, the representative antioxidants commercialized such as Promethazine, Trolox, Probucol and N-propyl gallate were examined in terms of 50% inhibition concentration (IC50) according to the above procedure and the results are shown in Table 4.
row,Compound,IC50
1,"Cc1c(C)c2c(c(C)c1O)CCC(C)(C(=O)O)O2 (centres unmarked) [Trolox, reference compound]",24.6 µM
2,CCOC1c2cc(NC)ccc2OC(C)(C)C1OCc1cccc(F)c1 (centres unmarked) [Compound 5-68],1.39 µM
3,CC1(C)Oc2ccc(NCc3ccccc3)cc2C(OCCc2ccccc2)C1OCc1ccc(F)cc1 (centres unmarked) [Compound 5-306],4.12 µM
4,CCNc1ccc2c(c1)C(OC)C(OC(=O)CC(C)(C)C)C(C)(C)O2 (centres unmarked) [Compound 5-1552],5.43 µM
5,CCNc1ccc2c(c1)C(OC)C(OC(=O)c1ccco1)C(C)(C)O2 (centres unmarked) [Compound 5-1560],2.31 µM
6,CCCCCOC1C(OCc2ccccc2)c2cc(NC)ccc2OC1(C)C (centres unmarked) [Compound 5-77],2.5 µM
7,CNc1ccc2c(c1)C(OCc1ccccc1)C(OCc1ccccc1)C(C)(C)O2 (centres unmarked) [Compound 5-65],1.13 µM
8,CCCCOC1c2cc(NC)ccc2OC(C)(C)C1OC(=O)c1ccccc1 (centres unmarked) [Compound 5-1515],2.23 µM
9,CC1(C)Oc2ccc(NCc3ccccc3)cc2C(OCc2ccccc2)C1OCc1ccc2ccccc2c1 (centres unmarked) [Compound 5-298],6.07 µM
10,C/C=C/COC1C(OCCCC)c2cc(NCc3ccc(F)cc3)ccc2OC1(C)C (centres unmarked) [Compound 5-510],9.45 µM
11,CC(C)(C)c1ccc(COC2C(OCCc3ccccc3)c3cc(NCc4ccccc4)ccc3OC2(C)C)cc1 (centres unmarked) [Compound 5-307],3.55 µM
12,C#CCOC1C(OCCCC)c2cc(NC)ccc2OC1(C)C (centres unmarked) [Compound 5-64],2.57 µM
13,"CC(C)(Sc1cc(C(C)(C)C)c(O)c(C(C)(C)C)c1)Sc1cc(C(C)(C)C)c(O)c(C(C)(C)C)c1 [Probucol, reference compound]",18.2 µM
14,CCNc1ccc2c(c1)C(OCC)C(OC(C)=O)C(C)(C)O2 (centres unmarked) [Compound 5-1561],2.89 µM
15,C=CCOC1C(OCCCC)c2cc(NC)ccc2OC1(C)C (centres unmarked) [Compound 5-63],2.46 µM
16,"CC(CN1c2ccccc2Sc2ccccc21)N(C)C (centres unmarked) [Promethazine, reference compound]",10.2 µM
17,Cc1ccccc1COC1C(OCCc2ccccc2)c2cc(NCc3ccccc3)ccc2OC1(C)C (centres unmarked) [Compound 5-309],2.9 µM
18,C#CCOC1C(OCCCC)c2cc(NCc3ccc(F)cc3)ccc2OC1(C)C (centres unmarked) [Compound 5-512],3.6 µM
19,CNc1ccc2c(c1)C(OCCC1CCCCC1)C(OCc1ccccc1)C(C)(C)O2 (centres unmarked) [Compound 5-97],5.34 µM
20,CNc1ccc2c(c1)C(OCCC1CCCCC1)C(OCc1cccc(Cl)c1)C(C)(C)O2 (centres unmarked) [Compound 5-103],5.1 µM
21,CNc1ccc2c(c1)C(OCc1ccccc1)C(OCc1ccc(Br)cc1F)C(C)(C)O2 (centres unmarked) [Compound 5-73],2.85 µM
22,CCCCOC1c2cc(NC)ccc2OC(C)(C)C1OCc1ccc(Br)cc1F (centres unmarked) [Compound 5-57],4.37 µM

row,Compound,IC50
1,Cc1ccccc1COC1C(OCc2ccccc2)c2cc(NCc3ccccc3)ccc2OC1(C)C (centres unmarked) [Compound 5-293],3.68 µM
2,Cc1ccc(COC2C(OCCc3ccccc3)c3cc(NCc4ccccc4)ccc3OC2(C)C)cc1 (centres unmarked) [Compound 5-312],4.13 µM
3,CNc1ccc2c(c1)C(OCCC1CCCCC1)C(OCc1ccc(C)cc1)C(C)(C)O2 (centres unmarked) [Compound 5-104],4.01 µM
4,C/C=C/COC1C(OCc2ccccc2)c2cc(NC)ccc2OC1(C)C (centres unmarked) [Compound 5-78],1.14 µM
5,CCCCOC1c2cc(NC)ccc2OC(C)(C)C1OCc1cccc(Cl)c1 (centres unmarked) [Compound 5-55],2.61 µM
6,CNc1ccc2c(c1)C(OC)C(OC(=O)CC(C)(C)C)C(C)(C)O2 (centres unmarked) [Compound 5-1482],5.27 µM
7,CNc1ccc2c(c1)C(OCCC1CCCCC1)C(OCc1ccc3ccccc3c1)C(C)(C)O2 (centres unmarked) [Compound 5-106],5.51 µM
8,CCCCOC1c2cc(NC)ccc2OC(C)(C)C1OCc1ccccc1C (centres unmarked) [Compound 5-53],1.8 µM
9,CCNc1ccc2c(c1)C(OCC)C(OC(=O)c1ccco1)C(C)(C)O2 (centres unmarked) [Compound 5-1570],3.03 µM
10,CC1(C)Oc2ccc(NCc3ccccc3)cc2C(OCc2ccccc2)C1OCc1cccc(F)c1 (centres unmarked) [Compound 5-292],3.25 µM
11,CNc1ccc2c(c1)C(OCc1ccccc1)C(OCc1ccccc1C)C(C)(C)O2 (centres unmarked) [Compound 5-69],1.42 µM
12,CNc1ccc2c(c1)C(OCc1ccccc1)C(OCc1cccc(Cl)c1)C(C)(C)O2 (centres unmarked) [Compound 5-71],1.7 µM
13,CCCCOC1c2cc(NC)ccc2OC(C)(C)C1OCc1ccccc1 (centres unmarked) [Compound 5-49],2.85 µM
14,CC1(C)Oc2ccc(NCc3ccccc3)cc2C(OCCc2ccccc2)C1OCc1ccc(Br)cc1F (centres unmarked) [Compound 5-313],1.44 µM
15,CNc1ccc2c(c1)C(OCCC1CCCCC1)C(OCc1cccc(F)c1)C(C)(C)O2 (centres unmarked) [Compound 5-100],3.89 µM
16,CCCCOC1c2cc(NC)ccc2OC(C)(C)C1OCc1ccc(C(C)(C)C)cc1 (centres unmarked) [Compound 5-51],5.2 µM
17,CCCCOC1c2cc(NC)ccc2OC(C)(C)C1OCc1ccc(F)cc1 (centres unmarked) [Compound 5-50],4.9 µM
18,CCNc1ccc2c(c1)C(OCC)C(OC(=O)CC(C)(C)C)C(C)(C)O2 (centres unmarked) [Compound 5-1562],3.03 µM
19,CCCCCOC1C(OCC)c2cc(NCc3ccc(F)cc3)ccc2OC1(C)C (centres unmarked) [Compound 5-477],3.63 µM
20,CNc1ccc2c(c1)C(OC)C(OC(=O)C1CCCCC1)C(C)(C)O2 (centres unmarked) [Compound 5-1483],2.39 µM
21,C=CCOC1C(OCCCC)c2cc(NCc3ccc(F)cc3)ccc2OC1(C)C (centres unmarked) [Compound 5-511],0.12 µM

# The remaining lines, values ahead:
row,IC50,Compound
1,4.38 µM,CCOC1c2cc(NCc3ccc(F)cc3)ccc2OC(C)(C)C1OCc1ccccc1C (centres unmarked) [Compound 5-469]
2,1.14 µM,COC1c2cc(NCc3ccc(C)cc3)ccc2OC(C)(C)C1OC(=O)c1ccccc1 (centres unmarked) [Compound 5-1835]
3,3.11 µM,COC1c2cc(NCc3ccc(F)cc3)ccc2OC(C)(C)C1OC(=O)c1ccco1 (centres unmarked) [Compound 5-1770]
4,4.27 µM,CCOC1c2cc(NCc3ccc(F)cc3)ccc2OC(C)(C)C1OCc1cccc(F)c1 (centres unmarked) [Compound 5-468]
5,4.09 µM,CCNc1ccc2c(c1)C(OCC)C(OC(=O)c1ccc(F)cc1)C(C)(C)O2 (centres unmarked) [Compound 5-1568]
6,6.21 µM,C/C=C/COC1C(OCC)c2cc(NCc3ccc(F)cc3)ccc2OC1(C)C (centres unmarked) [Compound 5-478]
7,6.01 µM,CCCCOC1c2cc(NCc3ccc(F)cc3)ccc2OC(C)(C)C1OC(=O)c1cccs1 (centres unmarked) [Compound 5-1799]
8,4.85 µM,CCOC1c2cc(NCc3ccc(F)cc3)ccc2OC(C)(C)C1OCc1cccc(Cl)c1 (centres unmarked) [Compound 5-471]
9,4.25 µM,COc1ccc(C(=O)OC2C(OC)c3cc(NCc4ccc(C)cc4)ccc3OC2(C)C)cc1 (centres unmarked) [Compound 5-1837]
10,3.9 µM,CCOC1c2cc(NCc3ccc(F)cc3)ccc2OC(C)(C)C1OCc1ccc(C)cc1 (centres unmarked) [Compound 5-472]
11,4.34 µM,CC1(C)Oc2ccc(NCc3ccc(F)cc3)cc2C(OCc2ccccc2)C1OC(=O)c1ccco1 (centres unmarked) [Compound 5-1810]
12,5.55 µM,C#CCOC1C(OCC)c2cc(NCc3ccc(F)cc3)ccc2OC1(C)C (centres unmarked) [Compound 5-480]
13,1.31 µM,COC1c2cc(NCc3ccc(C)cc3)ccc2OC(C)(C)C1OC(=O)c1ccc(F)cc1 (centres unmarked) [Compound 5-1838]
14,5.13 µM,COC1c2cc(NCc3ccc(F)cc3)ccc2OC(C)(C)C1OC(=O)c1ccccc1 (centres unmarked) [Compound 5-1765]
15,5.73 µM,COC1c2cc(NCc3ccc(C)cc3)ccc2OC(C)(C)C1OCc1ccccc1Cl (centres unmarked) [Compound 5-566]
16,1.07 µM,COC1c2cc(NCc3ccc(C)cc3)ccc2OC(C)(C)C1OC(=O)c1cccs1 (centres unmarked) [Compound 5-1839]
17,5.97 µM,COC1c2cc(NCc3ccc(F)cc3)ccc2OC(C)(C)C1OC(=O)c1cccs1 (centres unmarked) [Compound 5-1769]
18,2.72 µM,CCOC1c2cc(NCc3ccc(F)cc3)ccc2OC(C)(C)C1OCc1ccc(Br)cc1F (centres unmarked) [Compound 5-473]
19,1.09 µM,COC1c2cc(NCc3ccc(C)cc3)ccc2OC(C)(C)C1OC(=O)CC(C)(C)C (centres unmarked) [Compound 5-1832]
20,1.03 µM,CC1(C)Oc2ccc(NCc3ccc(F)cc3)cc2C(OCc2ccccc2)C1OC(=O)c1ccco1 (centres unmarked) [Compound 5-1840]
21,3.45 µM,CCOC1c2cc(NCc3ccc(F)cc3)ccc2OC(C)(C)C1OCc1ccc2ccccc2c1 (centres unmarked) [Compound 5-474]
22,3.81 µM,C#CCOC1C(OC)c2cc(NCc3ccc(F)cc3)ccc2OC1(C)C (centres unmarked) [Compound 5-464]
23,5.85 µM,Cc1ccc(C(=O)OC2C(OCc3ccccc3)c3cc(NCc4ccc(F)cc4)ccc3OC2(C)C)cc1 (centres unmarked) [Compound 5-1806]
24,3.97 µM,CC1(C)Oc2ccc(NCc3ccc(F)cc3)cc2C(OCc2ccccc2)C1OC(=O)c1ccc(F)cc1 (centres unmarked) [Compound 5-1808]
25,3.9 µM,CCCCOC1c2cc(NCc3ccc(F)cc3)ccc2OC(C)(C)C1OC(=O)c1ccco1 (centres unmarked) [Compound 5-1800]
26,6.36 µM,CC1(C)Oc2ccc(NCc3ccc(F)cc3)cc2C(OCc2ccccc2)C1OC(=O)c1cccs1 (centres unmarked) [Compound 5-1809]
27,2.63 µM,COc1ccc(C(=O)OC2C(OC)c3cc(NCc4ccc(F)cc4)ccc3OC2(C)C)cc1 (centres unmarked) [Compound 5-1767]
28,2.04 µM,C=CCOC1C(OC(C)C)c2cc(NCc3ccc(F)cc3)ccc2OC1(C)C (centres unmarked) [Compound 5-495]
